In the assay the test system is BDF1 mice, P388 leukemia ip, median survival T/C. The experiment in a line: NCI In Vivo Anticancer Drug Screen. Data for tumor model P388 Leukemia (intraperitoneal) in B6D2F1 (BDF1) mice. The following applies: endpoint: median survival time, higher = longer survival. The procedure, abridged: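 In tumour-bearing mice, survival after compound treatment is set against the vehicle group and given as a quotient.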

[1] abbreviates: dose: 100.0 mg/kg/injection, schedule: Q04DX003 (ip), vehicle: saline with Tween-80.
Setting [2] is: dose: 25.0 mg/kg/injection, schedule: Q01DX009 (ip), vehicle: saline with Tween-80.
Where [3] appears, read: dose: 50.0 mg/kg/injection, schedule: Q01DX009 (ip), vehicle: saline with Tween-80.
Where [4] appears, read: dose: 6.25 mg/kg/injection, schedule: Q01DX009 (ip), vehicle: saline with Tween-80.
[5] abbreviates: dose: 12.5 mg/kg/injection, schedule: Q01DX009 (ip), vehicle: saline with Tween-80.
Where [6] appears, read: dose: 100.0 mg/kg/injection, schedule: Q01DX009 (ip), vehicle: saline with Tween-80.
Where [7] appears, read: dose: 200.0 mg/kg/injection, schedule: Q01DX009 (ip), vehicle: saline with Tween-80.
Where [8] appears, read: dose: 50.0 mg/kg/injection, schedule: Q04DX003 (ip), vehicle: Klucel (hydroxypropylcellulose) (HPC).
Where [9] appears, read: dose: 100.0 mg/kg/injection, schedule: Q04DX003 (ip), vehicle: Klucel (hydroxypropylcellulose) (HPC).

Molecules are shown by their SMILES. Values joined by “and” are separate entries in the source; they are usually repeats but may differ in a detail not shown here. Equal values may be shown once. Inconclusive results and toxic doses are left out.

Regarding `S=c1c2[nH]cnc2ncn1CCSC1=NC=NC2=NC=NC21` (centres undefined), the T/C reads like this: under setting [1], 100 % of control; (dose: 200.0 mg/kg/injection, schedule: Q04DX003 (ip), vehicle: saline with Tween-80) 95 % of control; (dose: 400.0 mg/kg/injection, schedule: Q04DX003 (ip), vehicle: saline with Tween-80) 109 % of control.
On to `CN1CCCC1CCNc1nc(C(Cl)(Cl)Cl)nc2ccc(Cl)cc12` (centres undefined), for which the T/C under setting [2] was 100 % of control; the T/C under setting [3] was 100 % of control; the T/C (dose: 50.0 mg/kg/injection, schedule: Q04DX003 (ip), vehicle: saline with Tween-80) is 104 % of control; the T/C under setting [1] is 104 % of control.
As for `CC(C)(C)[O][Pb]([c]1ccccc1)([c]1ccccc1)[c]1ccccc1`, the T/C by setting is: (dose: 0.39 mg/kg/injection, schedule: Q01DX009 (ip), vehicle: saline) 100 % of control; (dose: 0.85 mg/kg/injection, schedule: Q04DX003 (ip), vehicle: saline) 105 % of control; (dose: 1.02 mg/kg/injection, schedule: Q01DX009 (ip), vehicle: saline) 104 % of control and 115 % of control; (dose: 1.7 mg/kg/injection, schedule: Q04DX003 (ip), vehicle: saline) 110 % of control; (dose: 2.34 mg/kg/injection, schedule: Q01DX009 (ip), vehicle: saline) 113 % of control and 120 % of control; (dose: 3.4 mg/kg/injection, schedule: Q01DX009 (ip), vehicle: saline) 90 % of control. In addition, the T/C reads like this: (dose: 3.4 mg/kg/injection, schedule: Q04DX003 (ip), vehicle: saline) 90 % of control; (dose: 5.0 mg/kg/injection, schedule: Q04DX003 (ip), vehicle: saline) 104 % of control; (dose: 5.75 mg/kg/injection, schedule: Q01DX001 (ip), vehicle: Klucel (hydroxypropylcellulose) (HPC)) 88 % of control; (dose: 7.7 mg/kg/injection, schedule: Q04DX003 (ip), vehicle: saline) 86 % of control.
Regarding `O=[N+]([O-])c1ccc(/C=[N+](\[O-])CCO)cc1`, the T/C runs as follows: under setting [4], 101 % of control; under setting [5], 101 % of control; under setting [2], 100 % of control.
In the case of `CCCCCCCCN1CCCNCC1`, the T/C (dose: 25.0 mg/kg/injection, schedule: Q01DX009 (ip), vehicle: saline) was 100 % of control.
On to `COc1cc(C=C2C(=O)C=CC2=O)ccc1O`, for which the T/C runs as follows: (dose: 0.78 mg/kg/injection, schedule: Q01DX009 (ip), vehicle: saline with Tween-80) 116 % of control; (dose: 1.56 mg/kg/injection, schedule: Q01DX009 (ip), vehicle: saline with Tween-80) 104 % of control; (dose: 3.13 mg/kg/injection, schedule: Q01DX009 (ip), vehicle: saline with Tween-80) 112 % of control; under setting [4], 110 % of control; under setting [5], 95 % of control.
For `O=[N+]([O-])c1ccc(S(=O)c2ccc([N+](=O)[O-])c3no[n+]([O-])c23)cc1` (centres undefined), the T/C (dose: 10.0 mg/kg/injection, schedule: Q01DX009 (ip), vehicle: saline with Tween-80) was 104 % of control; the T/C (dose: 20.0 mg/kg/injection, schedule: Q01DX009 (ip), vehicle: saline with Tween-80) is 100 % of control; the T/C (dose: 40.0 mg/kg/injection, schedule: Q01DX009 (ip), vehicle: saline with Tween-80) was 102 % of control.
As for `CCOC(=O)/C(C#N)=C/C=C1\C=CC=CN1C`, the T/C under setting [3] was 90 % of control.
As to `O=C(O)CCc1nc(-c2ccccc2)c(-c2ccccc2)o1`, the T/C is, setting by setting: under setting [3], 100 % of control; under setting [6], 104 % of control; under setting [7], 119 % of control.
`COc1ccc(/C=C(\C)[N+](=O)[O-])cc1OC`: the T/C by setting is: (dose: 3.13 mg/kg/injection, schedule: Q01DX009 (ip), vehicle: other) 116 % of control; (dose: 6.25 mg/kg/injection, schedule: Q01DX009 (ip), vehicle: other) 116 % of control; (dose: 12.5 mg/kg/injection, schedule: Q01DX009 (ip), vehicle: other) 110 % of control; (dose: 25.0 mg/kg/injection, schedule: Q01DX009 (ip), vehicle: other) 118 % of control.
Consider `CC(=O)Nc1nccs1`, for which the T/C by setting is: (dose: 25.0 mg/kg/injection, schedule: Q01DX009 (ip), vehicle: Klucel (hydroxypropylcellulose) (HPC)) 104 % of control; (dose: 25.0 mg/kg/injection, schedule: Q04DX003 (ip), vehicle: Klucel (hydroxypropylcellulose) (HPC)) 95 % of control; (dose: 50.0 mg/kg/injection, schedule: Q01DX009 (ip), vehicle: Klucel (hydroxypropylcellulose) (HPC)) 95 % of control; under setting [8], 91 % of control; (dose: 100.0 mg/kg/injection, schedule: Q01DX009 (ip), vehicle: Klucel (hydroxypropylcellulose) (HPC)) 109 % of control; under setting [9], 95 % of control.
For the molecule `O=C(CNC(=O)c1ccc(C(=O)NCC(=O)Nc2ccc(C3=NCCCN3)cc2)cc1)Nc1ccc(C2=NCCCN2)cc1`, the T/C is, setting by setting: (dose: 11.0 mg/kg/injection, schedule: Q04DX003 (ip), vehicle: saline) 100 % of control; (dose: 16.0 mg/kg/injection, schedule: Q04DX003 (ip), vehicle: saline) 113 % of control; (dose: 25.0 mg/kg/injection, schedule: Q01DX001 (ip), vehicle: Klucel (hydroxypropylcellulose) (HPC)) 96 % of control; (dose: 50.0 mg/kg/injection, schedule: Q01DX001 (ip), vehicle: Klucel (hydroxypropylcellulose) (HPC)) 103 % of control; (dose: 66.0 mg/kg/injection, schedule: Q04DX003 (ip), vehicle: saline) 168 % of control; (dose: 75.0 mg/kg/injection, schedule: Q01DX001 (ip), vehicle: Klucel (hydroxypropylcellulose) (HPC)) 107 % of control. Also, the T/C is, setting by setting: (dose: 100.0 mg/kg/injection, schedule: Q01DX001 (ip), vehicle: Klucel (hydroxypropylcellulose) (HPC)) 115 % of control; (dose: 100.0 mg/kg/injection, schedule: Q04DX003 (ip), vehicle: saline) 181 % of control (2×) and 195 % of control; (dose: 150.0 mg/kg/injection, schedule: Q04DX003 (ip), vehicle: saline) 272 % of control and 186 % of control; (dose: 400.0 mg/kg/injection, schedule: Q01DX001 (ip), vehicle: Klucel (hydroxypropylcellulose) (HPC)) 168 % of control.
Consider `Clc1ccc(-c2ccccc2)cc1Cl`, for which the T/C under setting [3] was 115 % of control, the T/C under setting [6] was 114 % of control and the T/C under setting [7] was 118 % of control.
On to `CC(C)CCC[C@@H](C)[C@H]1CC[C@H]2[C@@H]3CC=C4C[C@@H](Cl)CC[C@]4(C)[C@H]3CC[C@]12C`, for which the T/C was 95 % of control (dose: 50.0 mg/kg/injection, schedule: Q04DX003 (sc), vehicle: Klucel (hydroxypropylcellulose) (HPC)); 104 % of control (dose: 100.0 mg/kg/injection, schedule: Q04DX003 (sc), vehicle: Klucel (hydroxypropylcellulose) (HPC)); 95 % of control (dose: 200.0 mg/kg/injection, schedule: Q04DX003 (sc), vehicle: Klucel (hydroxypropylcellulose) (HPC)).
In the case of `Cc1cc(C)c(CCc2cc(C)c(C)cc2C)cc1C`, the T/C reads like this: under setting [8], 95 % of control; under setting [9], 91 % of control; (dose: 200.0 mg/kg/injection, schedule: Q04DX003 (ip), vehicle: Klucel (hydroxypropylcellulose) (HPC)) 87 % of control and 108 % of control.
With `NC1(C(=O)O)CCCC1`, the T/C was 100 % of control (dose: 20.0 mg/kg/injection, schedule: Q01DX010 (ip), vehicle: water); 100 % of control and 120 % of control (dose: 22.5 mg/kg/injection, schedule: Q01DX010 (ip), vehicle: saline); 93 % of control (dose: 25.0 mg/kg/injection, schedule: Q01DX009 (ip), vehicle: carboxymethylcellulose (CMC)); 110 % of control (dose: 45.0 mg/kg/injection, schedule: Q01DX010 (ip), vehicle: saline); 92 % of control (dose: 50.0 mg/kg/injection, schedule: Q01DX009 (ip), vehicle: carboxymethylcellulose (CMC)); 110 % of control (dose: 80.0 mg/kg/injection, schedule: Q01DX010 (ip), vehicle: water). Besides, the T/C by setting is: (dose: 90.0 mg/kg/injection, schedule: Q01DX010 (ip), vehicle: saline) 185 % of control; under setting [6], 100 % of control; (dose: 200.0 mg/kg/injection, schedule: Q01DX009 (ip), vehicle: carboxymethylcellulose (CMC)) 87 % of control; under setting [7], 90 % of control.
On to `Cc1cc(C(C)(CC(C)C)c2ccc(O)c(C)c2)ccc1O`, for which the T/C reads like this: (dose: 100.0 mg/kg/injection, schedule: Q01DX009 (ip), vehicle: gum acacia) 120 % of control; (dose: 200.0 mg/kg/injection, schedule: Q01DX009 (ip), vehicle: gum acacia) 108 % of control.

These data come from PubChem BioAssay AID328 (DTP/NCI, 2004).
